Source: patent US10034879B2, “Substituted benzaldehyde compounds and methods for their use in increasing tissue oxygenation” (Global Blood Therapeutics, Inc., priority 2011, dated 2018)

molecular target: T1, HbS/A (Homo sapiens, UniProt P68871+P69905, E7V); test: Relaxed-to-tense transition assay (R/T assay); format: biochemical; details: compound at 9 μM; 3 μM HbS/A
T1 construct: A mixture of HbS/A was purified from blood; from tissue; host or cells: blood of homozygous sickle cell patients
Procedure: A relaxed-to-tense transition assay (“R/T assay”) was used to determine the ability of substituted benzaldehyde compounds to maintain the high-oxygen affinity relaxed (R) state of hemoglobin under deoxygenated conditions. This ability can be expressed as a “delta R” value (i.e., the change in the time-period of the R state after hemoglobin is treated with a compound, as compared to the period without treatment with the compound). Delta R is the % R to remaining after the compounds treatment compared with no treatment (e.g. if R % without treatment is 8% while with treatment with a target compound is 48% R at 30 μM, then % R is 40% for that compound.
A mixture of HbS/A was purified from blood obtained from homozygous sickle cell patients though the Hemoglobinopathy Center at Children's Hospital Oakland Research Institute (CHORI) with Institutional Review Board approval. HbS/A (at a final concentration of 3 μM) was incubated for 1 hr at 37° C. in presence or absence of compounds in […] potassium phosphate buffer, pH=7.4 and 30 μM 2, 3 diphosphoglycerate (DPG) in 96 well plates in a final volume of 160 μl. Compounds were added at different concentrations (3 μM to 100 μM final concentrations). Plates were covered with a Mylar film. After incubation was completed the Mylar cover was removed and the plates were placed in a Spectrostar Nano plate reader previously heated at 37° C. Five minutes later, N2 (flow rate=20 L/min) was flowed through the spectrophotometer. Spectroscopic measurements (300 nm to 700 nm) were taken every 5 min for 2 hours. Data analysis was performed by using linear regression from the data retrieved for all wavelengths.
Table 4 below lists the delta R values where + indicates a delta R of between 0 and 30, ++ indicates a delta R of between 30 and 50, and +++ indicates a delta R of 50 or greater. Unless noted otherwise, the compounds in Table 2 were tested at 9 μM.

| SMILES | delta R (%) |
| --- | --- |
| COc1ccc(OCc2cccnc2)c(C=O)c1 [Compound 41, 5-methoxy-2-(pyridin-3-ylmethoxy)benzaldehyde] | + (+ indicates a delta R of between 0 and 30) |
| COc1ccc(OCc2cccc3ncccc23)c(C=O)c1 [Compound 10, 5-methoxy-2-(quinolin-5-ylmethoxy)benzaldehyde] | ++ (++ indicates a delta R of between 30 and 50) |
| COc1ccc(OCc2cn3ccccc3n2)c(C=O)c1 [Compound 5, 2-(imidazo[1,2-a]pyridin-2-ylmethoxy)-5-methoxybenzaldehyde] | ++ (++ indicates a delta R of between 30 and 50) |
| COc1ccc(OCc2cccc3[nH]ncc23)c(C=O)c1 [Compound 25, 2-((1H-indazol-4-yl)methoxy)-5-methoxybenzaldehyde] | ++ (++ indicates a delta R of between 30 and 50) |
| COc1ccc(OCc2cn3cccc(C)c3n2)c(C=O)c1 [Compound 24, 5-methoxy-2-((8-methylimidazo[1,2-a]pyridin-2-yl)methoxy)benzaldehyde] | + (+ indicates a delta R of between 0 and 30) |

molecular target: T2, purified Hemoglobin S (HbS) (Homo sapiens, UniProt P68871+P69905, E7V); test: Oxygen equilibrium curves (OEC) in purified HbS, HEMOX analyzer, change in p50; format: biochemical; details: compound at 30 μM; 25 μM purified HbS
T2 construct: HbS was purified by a modified procedure; from tissue; host or cells: blood of homozygous sickle cell patients
Procedure: Oxygen equilibrium curves (OEC) in purified Hemoglobin S (HbS) were measured by the change in p50, the partial pressure of oxygen at which the heme binding sites in the HbS sample are 50% saturated with oxygen. HbS was purified by a modified procedure (Antonini and Brunori, 1971; Heomoglobin and Myoglobin in their Reactions with Ligands; North Holland Publishing Company; Amsterdam, London) from blood obtained from homozygous sickle cell patients though the Hemoglobinopathy Center at Children's Hospital Oakland Research Institute (CHORI) with Institutional Review Board approval. Oxygen equilibrium curves were carried out with a HEMOX analyzer, (TCS Scientific, New Hope, Pa.). Five hundred μL of 250 μM purified HbS were diluted into 4.5 mL of HEMOX buffer (30 mM TES, 130 mM NaCl, 5 mM KCl, pH=7.4) resulting in a final hemoglobin concentration of 25 μM. The compounds were added at the final desired concentrations. The mixture was incubated for 45 min at 37° C. and then transferred to the Hemox sample chamber. The samples were saturated with oxygen by flushing with compressed air for 10 minutes. The samples were then flushed with pure nitrogen and the absorbance of deoxy-Hb was recorded as a function of the solution pO2. The oxygen equilibrium data was then fit to the Hill Model to obtain values for p50. The deoxygenation curves for both HbS alone (control) and HbS in the presence of compound were collected with the TCS software. The p50 for purified Hbs was typically 13.8±1.6. Delta p50 values were obtained from the p50 value for control minus the p50 value for HbS treated with compound divided by the p50 value for the control.
The compounds of Table 1 that were where tested in the assay above were all found to have positive delta p50 values. Delta p50% is calculated from [[p50(HbS)−p50(HbS treated with compound)]/p50(HbS)]×100. Table 2 below lists the delta p50% values where + indicates a delta p50% of between 0 and 29 and ++ indicates a delta p50% of 30 or greater. Unless noted otherwise, the compounds in Table 2 were tested at 30 μM.

| SMILES | delta p50 |
| --- | --- |
| O=Cc1ccccc1C(=O)Nc1cccn2ccnc12 [Compound 40, 2-formyl-N-(imidazo[1,2-a]pyridin-8-yl)benzamide] | + (+ indicates a delta p50% of between 0 and 29) |
| Cc1ccc(OCc2cccn3ccnc23)c(C=O)c1 [Compound 16, 2-(imidazo[1,2-a]pyridin-8-ylmethoxy)-5-methylbenzaldehyde] | + (+ indicates a delta p50% of between 0 and 29) |
| O=Cc1ccc(F)cc1OCc1cccn2ccnc12 [Compound 14, 4-fluoro-2-(imidazo[1,2-a]pyridin-8-ylmethoxy)benzaldehyde] | + (+ indicates a delta p50% of between 0 and 29) |
| COc1ccc(OCc2cccn3ccnc23)c(C=O)c1 [Compound 1, 2-(imidazo[1,2-a]pyridin-8-ylmethoxy)-5-methoxybenzaldehyde] | ++ (++ indicates a delta p50% of 30 or greater) |
| COc1ccc(OCc2cccc3c2cnn3C)c(C=O)c1 [Compound 23, 5-methoxy-2-((1-methyl-1H-indazol-4-yl)methoxy)benzaldehyde] | ++ (++ indicates a delta p50% of 30 or greater) |
| COc1ccc(OCc2cccn3cncc23)c(C=O)c1 [Compound 7, 2-(imidazo[1,5-a]pyridin-8-ylmethoxy)-5-methoxybenzaldehyde] | ++ (++ indicates a delta p50% of 30 or greater) |
| COc1ccc(OCc2cccc3ncccc23)c(C=O)c1 [Compound 10, 5-methoxy-2-(quinolin-5-ylmethoxy)benzaldehyde] | ++ (++ indicates a delta p50% of 30 or greater) |
| N#Cc1ccc(C=O)c(OCc2cccn3ccnc23)c1 [Compound 2, 4-formyl-3-(imidazo[1,2-a]pyridin-8-ylmethoxy)benzonitrile] | + (+ indicates a delta p50% of between 0 and 29) |
| COc1ccc(OCc2ccc3cncn3c2)c(C=O)c1 [Compound 34, 2-(imidazo[1,5-a]pyridin-6-ylmethoxy)-5-methoxybenzaldehyde] | + (+ indicates a delta p50% of between 0 and 29) |
| COc1ccc(OCc2cn3ccccc3n2)c(C=O)c1 [Compound 5, 2-(imidazo[1,2-a]pyridin-2-ylmethoxy)-5-methoxybenzaldehyde] | ++ (++ indicates a delta p50% of 30 or greater) |
| N#Cc1ccc(OCc2cccn3ccnc23)c(C=O)c1 [Compound 35, 3-formyl-4-(imidazo[1,2-a]pyridin-8-ylmethoxy)benzonitrile] | + (+ indicates a delta p50% of between 0 and 29) |
| COc1ccc(OCc2cccc3[nH]ncc23)c(C=O)c1 [Compound 25, 2-((1H-indazol-4-yl)methoxy)-5-methoxybenzaldehyde] | ++ (++ indicates a delta p50% of 30 or greater) |
| COc1ccc(OCc2cccc3nccn23)c(C=O)c1 [Compound 37, 2-(imidazo[1,2-a]pyridin-5-ylmethoxy)-5-methoxybenzaldehyde] | + (+ indicates a delta p50% of between 0 and 29) |
| COc1ccc(OCc2ccn3ccnc3c2)c(C=O)c1 [Compound 8, 2-(imidazo[1,2-a]pyridin-7-ylmethoxy)-5-methoxybenzaldehyde] | + (+ indicates a delta p50% of between 0 and 29) |
| O=Cc1ccccc1OCc1cccn2ccnc12 [Compound 13, 2-(imidazo[1,2-a]pyridin-8-ylmethoxy)benzaldehyde] | + (+ indicates a delta p50% of between 0 and 29) |
| COc1ccc(OCc2cnc3ccccn23)c(C=O)c1 [Compound 9, 2-(imidazo[1,2-a]pyridin-3-ylmethoxy)-5-methoxybenzaldehyde] | + (+ indicates a delta p50% of between 0 and 29) |
| O=Cc1cc(Br)ccc1OCc1cccn2ccnc12 [Compound 11, 5-bromo-2-(imidazo[1,2-a]pyridin-8-ylmethoxy)benzaldehyde] | + (+ indicates a delta p50% of between 0 and 29) |
| COc1ccc(OCc2cn3cccc(C)c3n2)c(C=O)c1 [Compound 24, 5-methoxy-2-((8-methylimidazo[1,2-a]pyridin-2-yl)methoxy)benzaldehyde] | ++ (++ indicates a delta p50% of 30 or greater) |
| COc1ccc(OCc2ccc3nccn3c2)c(C=O)c1 [Compound 4, 2-(imidazo[1,2-a]pyridin-6-ylmethoxy)-5-methoxybenzaldehyde] | + (+ indicates a delta p50% of between 0 and 29) |

same assay, conditions: compound at 100 μM; 25 μM purified HbS

| SMILES | delta p50 |
| --- | --- |
| COc1ccc(C=O)c(OCc2cccn3cncc23)c1 [Compound 6, 2-(imidazo[1,5-a]pyridin-8-ylmethoxy)-4-methoxybenzaldehyde] | + (100 μM) (+ indicates a delta p50% of between 0 and 29) |
| O=Cc1ccc(Cl)cc1OCc1cccn2ccnc12 [Compound 12, 4-chloro-2-(imidazo[1,2-a]pyridin-8-ylmethoxy)benzaldehyde] | + (100 μM) (+ indicates a delta p50% of between 0 and 29) |
| COc1ccc(NC(=O)c2cccn3ccnc23)c(C=O)c1 [Compound 38, N-(2-formyl-4-methoxyphenyl)imidazo[1,2-a]pyridine-8-carboxamide] | ++ (100 μM) (++ indicates a delta p50% of 30 or greater) |
| O=Cc1ccccc1NC(=O)c1cccn2ccnc12 [Compound 39, N-(2-formylphenyl)imidazo[1,2-a]pyridine-8-carboxamide] | + (100 μM) (+ indicates a delta p50% of between 0 and 29) |
| COc1ccc(OCc2ccc3cnccn23)c(C=O)c1 [Compound 33, 5-methoxy-2-(pyrrolo[1,2-a]pyrazin-6-ylmethoxy)benzaldehyde] | + (100 μM) (+ indicates a delta p50% of between 0 and 29) |
| COc1cccc(C=O)c1OCc1cccn2ccnc12 [Compound 15, 2-(imidazo[1,2-a]pyridin-8-ylmethoxy)-3-methoxybenzaldehyde] | + (100 μM) (+ indicates a delta p50% of between 0 and 29) |
| COc1ccc(OCc2ccnc3[nH]ccc23)c(C=O)c1 [Compound 21, 2-((1H-pyrrolo[2,3-b]pyridin-4-yl)methoxy)-5-methoxybenzaldehyde] | + (100 μM) (+ indicates a delta p50% of between 0 and 29) |
| COc1ccc(C=O)c(OCc2cccn3ccnc23)c1 [Compound 3, 2-(imidazo[1,2-a]pyridin-8-ylmethoxy)-4-methoxybenzaldehyde] | + (100 μM) (+ indicates a delta p50% of between 0 and 29) |
